Data taken from patent publication US7790895B2, “Quinoline derivatives as potassium ion channel openers” (Janssen Pharmaceutica NV, priority 2005, dated 2010).

Molecular target: T1, KATP channels (Homo sapiens, UniProt O60706)
T1 construct: TE671 human medulloblastoma cells were obtained from ATCC; host or cells: TE671 human medulloblastoma cells
Assay: Potassium Channel Assay (FLIPR membrane potential, KATP channel opening)
Assay type: cell-based
Conditions: TE671 human medulloblastoma cells, Membrane Potential Assay Dye, room temperature; for % Stimulation: test concentration not given
Description: TE671 human medulloblastoma cells were obtained from ATCC and grown in Dulbecco's modified Eagle's medium (DMEM) supplemented with 10% fetal bovine serum, 100 U/ml penicillin and 100 U/ml streptomycine.
The day before testing, the cells were plated in black 96-well plates at 50K/well. On the day of testing, the growth media was removed, then 100 μl of FLIPR buffer (20 mM HEPES, 120 mM NaCl, 2 mM KCl, 2 mM CaCl2, 1 mM MgCl2, 5 mM Glucose) and 100 μl of Membrane Potential Assay Dye (Molecular Devices) dissolved in FLIPR buffer were added to each well. The cells were incubated at room temperature for 15 to 30 min.
The effect of test compounds on KATP channels were evaluated on a fluorometric imaging plate reader (FLIPR, Molecular Devices) at room temperature. After a baseline period, 50 μl of 5× stock solution of test compound prepared in FLIPR buffer was added and fluorescence change was monitored for 3 minutes. After this reading, glyburide, a KATP channel blocker, was added to a final concentration of 5 μM to check the specificity of the test compound as a KATP channel opener. Hyperpolarization resulting from KATP channel opening was observed as a decrease in fluorescence intensity.

T1 sequence (O60706 1-1549 isoform O60706-2): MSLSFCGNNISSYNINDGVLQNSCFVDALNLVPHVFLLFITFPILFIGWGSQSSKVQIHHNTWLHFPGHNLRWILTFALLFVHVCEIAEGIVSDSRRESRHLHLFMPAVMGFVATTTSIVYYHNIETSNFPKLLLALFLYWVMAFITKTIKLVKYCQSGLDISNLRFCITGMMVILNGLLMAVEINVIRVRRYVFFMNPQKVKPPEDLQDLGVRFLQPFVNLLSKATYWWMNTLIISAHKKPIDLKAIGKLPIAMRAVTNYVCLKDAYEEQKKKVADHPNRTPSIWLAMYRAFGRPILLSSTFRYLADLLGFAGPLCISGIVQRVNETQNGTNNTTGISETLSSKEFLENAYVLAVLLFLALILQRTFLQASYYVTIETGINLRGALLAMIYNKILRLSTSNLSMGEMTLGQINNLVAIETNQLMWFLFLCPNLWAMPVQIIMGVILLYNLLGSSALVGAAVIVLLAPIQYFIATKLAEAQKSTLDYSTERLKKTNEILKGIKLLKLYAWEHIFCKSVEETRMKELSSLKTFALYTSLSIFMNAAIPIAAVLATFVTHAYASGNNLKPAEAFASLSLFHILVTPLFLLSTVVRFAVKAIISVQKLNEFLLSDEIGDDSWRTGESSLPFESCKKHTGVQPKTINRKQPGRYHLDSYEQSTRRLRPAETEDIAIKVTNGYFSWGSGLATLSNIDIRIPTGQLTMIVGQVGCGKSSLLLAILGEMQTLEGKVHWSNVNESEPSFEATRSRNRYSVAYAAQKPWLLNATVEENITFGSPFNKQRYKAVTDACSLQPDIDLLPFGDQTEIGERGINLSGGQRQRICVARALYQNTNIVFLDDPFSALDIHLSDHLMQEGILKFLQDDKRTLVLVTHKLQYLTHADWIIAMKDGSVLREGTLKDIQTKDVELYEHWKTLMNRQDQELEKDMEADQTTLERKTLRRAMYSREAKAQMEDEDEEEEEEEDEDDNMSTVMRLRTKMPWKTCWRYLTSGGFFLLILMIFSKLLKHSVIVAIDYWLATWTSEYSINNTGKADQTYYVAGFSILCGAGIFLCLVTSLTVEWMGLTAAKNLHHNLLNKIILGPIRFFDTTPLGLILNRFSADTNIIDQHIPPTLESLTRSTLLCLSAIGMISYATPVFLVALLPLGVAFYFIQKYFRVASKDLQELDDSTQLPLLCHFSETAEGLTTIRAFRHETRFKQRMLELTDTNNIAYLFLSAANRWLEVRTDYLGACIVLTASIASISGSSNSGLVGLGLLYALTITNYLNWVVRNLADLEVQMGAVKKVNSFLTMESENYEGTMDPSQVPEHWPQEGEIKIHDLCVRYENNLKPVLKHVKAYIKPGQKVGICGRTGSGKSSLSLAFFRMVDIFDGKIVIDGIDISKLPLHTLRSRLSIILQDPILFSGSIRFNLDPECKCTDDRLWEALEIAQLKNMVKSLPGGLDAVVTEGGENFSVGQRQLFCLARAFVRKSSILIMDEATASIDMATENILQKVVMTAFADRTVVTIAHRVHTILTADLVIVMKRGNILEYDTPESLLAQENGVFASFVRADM
T1 sequence (Q14654 whole entry partner): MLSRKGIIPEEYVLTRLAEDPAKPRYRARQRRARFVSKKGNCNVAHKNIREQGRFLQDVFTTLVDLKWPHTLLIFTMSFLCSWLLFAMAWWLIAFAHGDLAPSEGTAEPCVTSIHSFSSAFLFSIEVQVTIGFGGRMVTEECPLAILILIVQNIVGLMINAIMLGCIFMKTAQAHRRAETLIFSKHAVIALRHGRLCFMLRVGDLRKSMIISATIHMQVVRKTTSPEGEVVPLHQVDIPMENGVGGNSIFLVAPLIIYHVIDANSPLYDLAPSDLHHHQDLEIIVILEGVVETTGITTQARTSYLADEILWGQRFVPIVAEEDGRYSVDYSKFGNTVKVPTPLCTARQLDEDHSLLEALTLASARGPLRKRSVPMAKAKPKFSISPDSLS

EC50 | % Stimulation | SMILES
> 30 µM | – | CCOC(=O)c1cnc2cc(C(F)(F)F)ccc2c1-c1ccc(-c2ccccc2)cc1 [Compound 5, 4-Biphenyl-4-yl-7-trifluoromethyl-quinoline-3-carboxylic acid ethyl ester]
> 30 µM | – | CCOC(=O)c1cnc2cc(C(F)(F)F)ccc2c1-c1cc(C(F)(F)F)cc(C(F)(F)F)c1 [Compound 3, 4-(3,5-Bis-trifluoromethyl-phenyl)-7-trifluoromethyl-quinoline-3-carboxylic acid-ethyl ester]
15 µM | – | Cc1ccccc1C(O)c1cnccc1-c1cccc(C#N)c1 (stereo not shown) [Compound 31, 3-{3-[Hydroxy-(2-methyl-phenyl)-methyl]-pyridin-4-yl}-benzonitrile]
10.5 µM | – | N#Cc1cccc(-c2ccncc2C(O)C(F)(F)F)c1 (stereo not shown) [Compound 39, 3-[3-(2,2,2-Trifluoro-1-hydroxy-ethyl)-pyridin-4-yl]-benzonitrile]
10.2 µM | – | N#Cc1cccc(-c2ccncc2C(O)c2ccc(Cl)cc2)c1 (stereo not shown) [Compound 26, 3-{3-[(4-Chloro-phenyl)-hydroxy-methyl]-pyridin-4-yl}-benzonitrile]
> 30 µM | 2% | CCOC(=O)c1cnc2cc(C(F)(F)F)ccc2c1-c1cccc(C=O)c1 [Compound 11, 4-(3-Formyl-phenyl)-7-trifluoromethyl-quinoline-3-carboxylic acid ethyl ester]
> 30 µM | 20% | CCOC(=O)c1cnc2cc(C(F)(F)F)ccc2c1-c1cccc(CO)c1 [Compound 12, 4-(3-Hydroxymethyl-phenyl)-7-trifluoromethyl-quinoline-3-carboxylic acid ethyl ester]
7.73 µM | – | CCOC(=O)c1cnc2cc(C(F)(F)F)ccc2c1-c1cc(C=O)ccc1OC [Compound 9, 4-(5-Formyl-2-methoxy-phenyl)-7-trifluoromethyl-quinoline-3-carboxylic acid ethyl ester]
17.2 µM | – | CC(O)c1cnccc1-c1cccc(C#N)c1 (stereo not shown) [Compound 52, 3-[3-(1-Hydroxy-ethyl)-pyridin-4-yl]-benzonitrile]
5.09 µM | – | O=C(c1ccccc1)c1ccncc1C(O)c1cccc(F)c1 (stereo not shown) [Compound 47, {3-[(3-Fluoro-phenyl)-hydroxy-methyl]-pyridin-4-yl}-phenyl-methanone]
> 30 µM | – | Cc1cc(C)c(C(O)c2cnccc2-c2cccc(C#N)c2)c(C)c1 (stereo not shown) [Compound 35, 3-{3-[Hydroxy-(2,4,6-trimethyl-phenyl)-methyl]-pyridin-4-yl}-benzonitrile]
14.3 µM | – | N#Cc1cccc(C(=O)c2ccncc2C(O)c2ccccc2)c1 (stereo not shown) [Compound 48, 3-[3-(Hydroxy-phenyl-methyl)-pyridine-4-carbonyl]-benzonitrile]
7.97 µM | – | CC(C)C(O)c1cnccc1Br (stereo not shown) [Compound 63, 1-(4-Bromo-pyridin-3-yl)-2-methyl-propan-1-ol]
9.82 µM | – | N#Cc1cccc(-c2ccncc2C(O)c2cc(Cl)cc(Cl)c2)c1 (stereo not shown) [Compound 25, 3-{3-[(3,5-Dichloro-phenyl)-hydroxy-methyl]-pyridin-4-yl}-benzonitrile]
> 30 µM | – | N#Cc1cccc(C2OC(O)c3cnccc32)c1 (stereo not shown) [Compound 55, 3-(3-Hydroxy-1,3-dihydro-furo[3,4-c]pyridin-1-yl)-benzonitrile]
> 30 µM | – | CCOC(=O)c1cnc2cc(C(F)(F)F)ccc2c1-c1cc(C)cc(OC)c1 [Compound 2, 4-(3-Methoxy-5-methyl-phenyl)-7-trifluoromethyl-quinoline-3-carboxylic acid ethyl ester]
> 30 µM | – | Cc1ccc(F)cc1C(O)c1cnccc1-c1cccc(C#N)c1 (stereo not shown) [Compound 38, 3-{3-[(5-Fluoro-2-methyl-phenyl)-hydroxy-methyl]-pyridin-4-yl}-benzonitrile]
15.1 µM | – | Cc1ccc(C(O)c2cnccc2-c2cccc(C#N)c2)cc1F (stereo not shown) [Compound 22, 3-{3-[(3-Fluoro-4-methyl-phenyl)-hydroxy-methyl]-pyridin-4-yl}-benzonitrile]
> 30 µM | – | COc1ccc(CO)cc1-c1ccncc1CO [Compound 58]
> 30 µM | – | OC1OC(c2ccccc2)c2ccncc21 (stereo not shown) [Compound 65, 1-Phenyl-1,3-dihydro-furo[3,4-c]pyridin-3-ol]

Continued, molecule first:

SMILES | EC50 | % Stimulation
Cc1ccc(C(O)c2cnccc2-c2cccc(C#N)c2)cc1 (stereo not shown) [Compound 32, 3-{3-[Hydroxy-(4-methyl-phenyl)-methyl]-pyridin-4-yl}-benzonitrile] | 8.48 µM | –
COc1ccc(C=O)cc1-c1ccncc1C=O [Compound 53, 4-(5-Formyl-2-methoxy-phenyl)-pyridine-3-carbaldehyde] | > 30 µM | 30%
COc1ccc(OC)c(C(O)c2cnccc2C(=O)c2ccccc2)c1 (stereo not shown) [Compound 46, {3-[(2,5-Dimethoxy-phenyl)-hydroxy-methyl]-pyridin-4-yl}-phenyl-methanone] | 12.1 µM | –
CCOC(=O)c1cnc2cc(C(F)(F)F)ccc2c1-c1cccc(C(F)(F)F)c1 [Compound 10, 7-Trifluoromethyl-4-(3-trifluoromethyl-phenyl)-quinoline-3-carboxylic acid ethyl ester] | > 30 µM | –
CCOC(=O)c1cnc2cc(C(F)(F)F)ccc2c1OS(=O)(=O)C(F)(F)F [Compound 15, 4-Trifluoromethanesulfonyloxy-7-trifluoromethyl-quinoline-3-carboxylic acid ethyl ester] | 6.27 µM | –
COc1cccc(C(O)c2cnccc2-c2cccc(C#N)c2)c1 (stereo not shown) [Compound 29, 3-{3-[Hydroxy-(3-methoxy-phenyl)-methyl]-pyridin-4-yl}-benzonitrile] | 13.7 µM | –
N#Cc1cccc(-c2ccncc2C(O)c2cccc(F)c2)c1 (stereo not shown) [Compound 21, 3-{3-[(3-Fluoro-phenyl)-hydroxy-methyl]-pyridin-4-yl}-benzonitrile] | 23.2 µM | –
OCc1cnccc1C(O)c1ccccc1 (stereo not shown) [Compound 56, (3-Hydroxymethyl-pyridin-4-yl)-phenyl-methanol] | > 30 µM | –
COc1ccc(C(O)c2cnccc2-c2cccc(C#N)c2)cc1 (stereo not shown) [Compound 30, 3-{3-[Hydroxy-(4-methoxy-phenyl)-methyl]-pyridin-4-yl}-benzonitrile] | > 30 µM | 7%
COc1ccc(F)cc1C(O)c1cnccc1-c1cccc(C#N)c1 (stereo not shown) [Compound 36, 3-{3-[(5-Fluoro-2-methoxy-phenyl)-hydroxy-methyl]-pyridin-4-yl}-benzonitrile] | > 30 µM | –
N#Cc1cccc(-c2ccncc2C(O)c2ccc(F)c(F)c2)c1 (stereo not shown) [Compound 23, 3-{3-[(3,4-Difluoro-phenyl)-hydroxy-methyl]-pyridin-4-yl}-benzonitrile] | 11.4 µM | –
N#Cc1cccc(-c2ccncc2C(O)c2ccccc2)c1 (stereo not shown) [Compound 19, 3-[3-(Hydroxy-phenyl-methyl)-pyridin-4-yl]-benzonitrile] | 9.63 µM | –
N#Cc1cccc(C(O)c2ccncc2CO)c1 (stereo not shown) [Compound 57, 3-[Hydroxy-(3-hydroxymethyl-pyridin-4-yl)-methyl]-benzonitrile] | > 30 µM | –
CCOC(=O)c1cnc2cc(C(F)(F)F)ccc2c1-c1cccc(C(C)=O)c1 [Compound 7, 4-(3-Acetyl-phenyl)-7-trifluoromethyl-quinoline-3-carboxylic acid ethyl ester] | > 30 µM | 2%
CSc1ccc(C(O)c2cnccc2-c2cccc(C#N)c2)cc1 (stereo not shown) [Compound 34, 3-{3-[Hydroxy-(4-methylsulfanyl-phenyl)-methyl]-pyridin-4-yl}-benzonitrile] | 20.8 µM | –
